We go through 2 compounds from patent US20030172478A1, “Bipyrrolinonylidene-type compound, colorant therewith, and method of producton thereof” (DAINIPPON INK AND CHEMICALS, INC., priority 2002, published 2003).

For series [1] the following is noted: background statement; cited from earlier work.
Series [2] in a line: solubility of the products in solvents. The format is physicochemical.

As to `O=C1NC(c2ccccc2)=C/C1=C1/C=C(c2ccccc2)NC1=O` [formula (b), bipyrrolinonylidene], in series [1], the “solubility in water and organic solvents” value is listed as “poor solubility”.
In the case of `CCOC(=O)C1=C(c2ccccc2)NC(=O)/C1=C1/C(=O)NC(c2ccccc2)=C1C(=O)OCC` [diethyl bipyrrolinonylidenedicarboxylate], the “solubility in dimethyl sulfoxide” value in series [2] (solvent dimethyl sulfoxide) is listed as “soluble”. In series [2] (solvent dimethylformamide), the solubility in dimethylformamide result is “soluble”. Further, the solubility in ethanol result in series [2] (solvent ethanol) is on record as “slightly soluble”.
